As a reminder, the melting point is the temperature of the solid-liquid transition.

The record followed here is patent US6784137B2, “6-aryl-4-aminopicolinates and their use as herbicides” (Dow AgroSciences LLC, priority 2001, dated 2004).

`COC(=O)c1nc(-c2cc3ccccc3o2)cc(N)c1Cl` [Compound 96, Methyl 4-amino-3-chloro-6-(2-benzofuranyl)pyridine-2-carboxylate] showed a melting point of 182 to 183 °C. Then `COC(=O)c1nc(-c2cc(OC)ccc2OC)cc(NC(C)=O)c1Cl` [Compound 81, Methyl 4-acetamido-3-chloro-6-(2,5-dimethoxyphenyl)pyridine-2-carboxylate], with 124 to 125 °C; and `COc1ncc(-c2cc(N)c(Cl)c(C(=O)O)n2)cn1` [Compound 239, 4-Amino-3-chloro-6-(2-methoxy-5-pyrimidinyl)pyridine-2-carboxylic acid], with 153 °C. As for `Nc1cc(-c2ccc3c(c2)CCO3)nc(C(=O)O)c1Cl` [Compound 201, 4-Amino-3-chloro-6-(2,3-dihydro-5-benzofuranyl)pyridine-2-carboxylic acid], the melting point lay within 218 to 220 °C. Consider `Nc1cc(-c2ccc(CO)cc2)nc(C(=O)O)c1Cl` [Compound 159, 4-Amino-3-chloro-6-(4-hydroxymethylphenyl)pyridine-2-carboxylic acid], for which the melting point lay in the range of 181 to 182 °C. As for `Nc1cc(-c2c(F)cccc2F)nc(C(=O)O)c1Cl` [Compound 169, 4-Amino-3-chloro-6-(2,6-difluorophenyl)pyridine-2-carboxylic acid], the figure is 165 to 166 °C; as for `COC(=O)c1nc(-c2cccs2)c(Cl)c(N)c1Cl` [Compound 105, Methyl 4-amino-3,5-dichloro-6-(2-thienyl)pyridine-2-carboxylate], 132 °C. `COC(=O)c1nc(-c2ccc(Cl)c(F)c2)cc(N)c1Cl` [Compound 61, Methyl 4-amino-3-chloro-6-(4-chloro-3-fluorophenyl)pyridine-2-carboxylate] showed a melting point of 149 to 151 °C. On to `Nc1cc(-c2cncnc2)nc(C(=O)O)c1Cl` [Compound 228, 4-Amino-3-chloro-6-(5-pyrimidinyl)pyridine-2-carboxylic acid], for which the melting point is 180 °C. In the case of `Nc1cc(-c2ccc(F)cc2F)nc(C(=O)O)c1Cl` [Compound 145, 4-Amino-3-chloro-6-(2,4-difluorophenyl)pyridine-2-carboxylic acid], the melting point was 206 °C (dec.). Then `Nc1cc(-c2cnccn2)nc(C(=O)O)c1Cl` [Compound 220, 4-Amino-3-chloro-6-(2-pyrazinyl)pyridine-2-carboxylic acid], with 172 to 173 °C. Consider `COC(=O)c1nc(-c2ccc(Cl)cc2OC)cc(N)c1Cl` [Compound 68, Methyl 4-amino-3-chloro-6-(4-chloro-2-methoxyphenyl)pyridine-2-carboxylate], for which the melting point fell in the range of 152 to 154 °C. `COC(=O)c1nc(-c2cncnc2)cc(N)c1Cl` [Compound 126, Methyl 4-amino-3-chloro-6-(5-pyrimidinyl)pyridine-2-carboxylate] yielded a melting point of 195 °C. On to `COC(=O)c1nc(-c2cccc(OC)c2)cc(N)c1Cl` [Compound 24, Methyl 4-amino-3-chloro-6-(3-methoxyphenyl)pyridine-2-carboxylate], for which the melting point fell in the range of 122 to 123 °C. Then `CCOC(=O)c1nc(-c2ccc(Cl)cc2)c(F)c(N)c1Cl` [Compound 252, Ethyl 4-amino-3-chloro-5-fluoro-6-(4-chlorophenyl)pyridine-2-carboxylate], with 88 to 89 °C.

The molecule `CCCCOC(=O)c1nc(-c2ccc(C)cc2)cc(N)c1Cl` [Compound 249, Butyl 4-amino-3-chloro-6-(4-methylphenyl)pyridine-2-carboxylate] came in with a melting point of 60 to 62 °C. `Nc1cc(-c2cccc(C(F)(F)F)c2)nc(C(=O)O)c1Cl` [Compound 157, 4-Amino-3-chloro-6-[3-(trifluoromethyl)phenyl]pyridine-2-carboxylic acid] registered a melting point of 175 to 176 °C.

`COC(=O)c1nc(-c2ccc3c(c2)CCC3)cc(NC(C)=O)c1Cl` [Compound 74, Methyl 4-acetamido-3-chloro-6-(5-indanyl)pyridine-2-carboxylate] displayed a melting point of 132 to 134 °C. Turning to `Cn1nccc1-c1cc(N)c(Cl)c(C(=O)O)n1` [Compound 223, 4-Amino-3-chloro-6-(1-methyl-1H-pyrazol-5-yl)pyridine-2-carboxylic acid], the melting point is 230 to 232 °C.

`COC(=O)c1nc(-c2c(F)cccc2F)cc(NC(C)=O)c1Cl` [Compound 55, Methyl 4-acetamido-3-chloro-6-(2,6-difluorophenyl)pyridine-2-carboxylate] came in with a melting point of 156 to 157 °C. As for `COC(=O)c1nc(-c2cc3ccccc3s2)cc(N)c1Cl` [Compound 125, Methyl 4-amino-3-chloro-6-(2-benzothienyl)pyridine-2-carboxylate], the figure is 177 to 178 °C.

The molecule `COC(=O)c1nc(-c2nccs2)cc(N)c1Cl` [Compound 123, Methyl 4-amino-3-chloro-6-(2-thiazolyl)pyridine-2-carboxylate] had a melting point of 195 to 197 °C. Then `Nc1cc(-c2ccc(OC(F)(F)F)cc2)nc(C(=O)O)c1Cl` [Compound 174, 4-Amino-3-chloro-6-[4-(trifluoromethoxy)phenyl]pyridine-2-carboxylic acid], with 164 to 165 °C; and `Nc1cc(-c2ccc(F)cc2)nc(C(=O)O)c1Cl` [Compound 156, 4-Amino-3-chloro-6-(4-fluorophenyl)pyridine-2-carboxylic acid], with 170 to 171 °C.

`COC(=O)c1nc(-c2ccccc2Cl)cc(N)c1Cl` [Compound 26, Methyl 4-amino-3-chloro-6-(2-chlorophenyl)pyridine-2-carboxylate] yielded a melting point of 115 to 117 °C.

Turning to `COC(=O)c1nc(-c2ccc(OC)cc2)c(Cl)c(N)c1Cl` [Compound 15, Methyl 4-amino-3,5-dichloro-6-(4-methoxyphenyl)pyridine-2-carboxylate], the melting point fell in the range of 107 to 109 °C. Then `COC(=O)c1nc(-c2ccnc(OC)c2)cc(N)c1Cl` [Compound 107, Methyl 4-amino-3-chloro-6-(6-methoxy-4-pyridinyl)pyridine-2-carboxylate], with 185 to 187 °C; and `Nc1cc(-c2nc3ccccc3o2)nc(C(=O)O)c1Cl` [Compound 226, 4-Amino-3-chloro-6-(2-benzoxazolyl)pyridine-2-carboxylic acid], with 262 °C (dec.); and `Nc1cc(-c2nc3ccccc3s2)nc(C(=O)O)c1Cl` [Compound 230, 4-Amino-3-chloro-6-(2-benzothiazolyl)pyridine-2-carboxylic acid], with 283 °C. Then `COC(=O)c1nc(-c2ccc(C(C)=O)cc2)cc(N)c1Cl` [Compound 31, Methyl 4-amino-3-chloro-6-(4-acetylphenyl)pyridine-2-carboxylate], with 146 to 148 °C. Then `Nc1cc(-c2cc(F)cc(F)c2)nc(C(=O)O)c1Cl` [Compound 167, 4-Amino-3-chloro-6-(3,5-difluorophenyl)pyridine-2-carboxylic acid], with 182 to 183 °C. For the molecule `COC(=O)c1nc(-c2cccs2)cc(N)c1Cl` [Compound 106, Methyl 4-amino-3-chloro-6-(2-thienyl)pyridine-2-carboxylate], the melting point lay within 138 to 139 °C. In turn, `COC(=O)c1nc(-c2ccc3c(c2)CCC3)cc(N)c1Cl` [Compound 75, Methyl 4-amino-3-chloro-6-(5-indanyl)pyridine-2-carboxylate] gave a melting point of 165 to 166 °C.

In turn, `CC(=O)c1ccc(-c2cc(N)c(Cl)c(C(=O)O)n2)cc1` [Compound 144, 4-Amino-3-chloro-6-(4-acetylphenyl)pyridine-2-carboxylic acid] yielded a melting point of 177 to 178 °C. On to `COC(=O)c1nc(-c2cncnc2)cc(NC(C)=O)c1Cl` [Compound 117, Methyl 4-acetamido-3-chloro-6-(5-pyrimidinyl)pyridine-2-carboxylate], for which the melting point lay within 178 to 185 °C.

Turning to `Nc1cc(-c2ccccc2)nc(C(=O)O)c1Cl` [Compound 135, 4-Amino-3-chloro-6-(phenyl)pyridine-2-carboxylic acid], the melting point was 180 to 181 °C (dec.).

In the case of `COC(=O)c1nc(-c2ccccc2F)cc(N)c1Cl` [Compound 37, Methyl 4-amino-3-chloro-6-(2-fluorophenyl)pyridine-2-carboxylate], the melting point is 121 to 122 °C.

Consider `Nc1cc(-c2ccc3c(c2Cl)OCO3)nc(C(=O)O)c1Cl` [Compound 187, 4-Amino-3-chloro-6-(2-chloro-3,4-methylenedioxyphenyl)pyridine-2-carboxylic acid], for which the melting point fell in the range of 226 to 227 °C. Then `COC(=O)c1nc(-c2ccc(CF)cc2)cc(N)c1Cl` [Compound 243, methyl 4-amino-3-chloro-6-(4-fluoromethylphenyl)pyridine-2-carboxylate], with 95 to 97 °C; and `COC(=O)c1nc(-c2cc(Br)ccc2OC)cc(N)c1Cl` [Compound 32, Methyl 4-amino-3-chloro-6-(5-bromo-2-methoxyphenyl)pyridine-2-carboxylate], with 191 to 192 °C.

`COC(=O)c1nc(-c2ccsc2)cc(NC(C)=O)c1Cl` [Compound 101, Methyl 4-acetamido-3-chloro-6-(3-thienyl)pyridine-2-carboxylate] returned a melting point of 133 °C.

`Cc1ccc(-c2cc(N)c(Cl)c(C(=O)O)n2)s1` [Compound 218, 4-Amino-3-chloro-6-(5-methyl-2-thienyl)pyridine-2-carboxylic acid]: the melting point fell in the range of 175 to 176 °C. Regarding `COC(=O)c1nc(-c2ccc3c(c2Cl)OCO3)cc(N)c1Cl` [Compound 73, Methyl 4-amino-3-chloro-6-(2-chloro-3,4-methylenedioxyphenyl)pyridine-2-carboxylate], the melting point is 155 to 156 °C. The molecule `COC(=O)c1nc(-c2ccc(F)cc2Cl)cc(NC(C)=O)c1Cl` [Compound 54, Methyl 4-acetamido-3-chloro-6-(2-chloro-4-fluorophenyl)pyridine-2-carboxylate] displayed a melting point of 162 to 163 °C.
